In patent US20240415791A1, “Therapeutic methods and compositions for treating cancer using devimistat and a fatty acid oxidation inhibitor, a tyrosine kinase inhibitor, a glutaminase inhibitor, and/or a glycolysis inhibitor” (Cornerstone Pharmaceuticals, Inc., priority 2021, published 2024):

What was measured:
Type in all cases: cell-based, human
PANC1 cells = experiment: Devimistat-induced cell death (ATP after recovery) in PANC1 cells; conditions: exogenous nutrient-free conditions
Experimental: Cells were plated at 80% confluency in complete RPMI in black, clear bottom 96-well plates or 35-mm dishes for ATP, protein and glycogen analysis, or glass coverslips for fluorescence visualization. To create low nutritional conditions, cells were seeded in complete media, after 24 hours cells were transferred to serum free RPMI for 18-24 hours. Prior to drug treatment, cells were incubated in a nutrient-free carbonate buffered salt solution (CBS2) for 3 hours. Drug treatments were then carried out in CBS2 with addition of nutrient sources and/or chemical agents as described in the Examples and Figures.
LOGIC: High throughput, plate reader assays for cell death essentially always ultimately depend on metabolic activity of cells to identify viability, directly or indirectly. Thus, strong inhibition of metabolic activity by anti-metabolism agents like those described herein can confound cell death analysis by such assays. […] The inventors thus used a recovery-based assay wherein cells are treated with anti-metabolic agents under conditions where mitochondrial metabolism is (or becomes) limiting on viability. After experimental treatment, drug and media are removed and cells are allowed to recover in serum-free RPMI. RPMI provides high levels of glucose in support of glycolytic ATP generation (independently of mitochondrial function), allowing viable cells to recover ATP levels that are ultimately measured in the plate assay to score cell viability. Under these conditions, cells that are committed to execution of cell death by the experimental treatment score as dead and cells that have not committed to cell death recover ATP levels and score as viable.
Specifically, after exposure to the treatments indicated, cells are allowed to recover ([…]) in RPMI without serum. Survival is assessed by conventional luminescence measurement of ATP levels after this recovery.
TECHNICAL DETAILS: Immediately after drug treatments, acute ATP levels of cells in black, clear bottom 96-well plates were measured using the CellTiter-Glo® Luminescent Cell Viability Assay (catalog #G775B) following Promega (Madison, WI) protocols. To assess cell viability, after drug treatments, drug/agent-containing medium was replaced with serum-free RPMI and cells were incubated for an additional 17-24 hours to allow recovery of viable cells, without additional cell division. After this recovery period ATP levels were measured using the CellTiter-Glo® Luminescent Cell Viability Assay as described above.
A. Exogenous glucose protects from devimistat-induced cell death. Four different cell lines were exposed for 15 hours (PANC1, AsPC1, H460) or 8 hours (PC3) to the indicated range of devimistat doses in the absence of exogenous nutrients (in carbonate buffered balanced salts solution, CBS2) after 3 hours of preincubation in CBS2 (for cell adaptation and to equilibrate soluble nutrient pools). Cells were exposed to the treatments indicated, followed by recovery (24 hours) in RPMI without serum (providing nutrient support for viable cell recovery, without serum factors for cell division). Survival is assessed by conventional luminescence measurement of ATP levels after this recovery. […] The relatively large quantitative differences in devimistat sensitivity between cell lines under exogenous nutrient deprivation are characteristic of each line (see examples below), with small experiment-to-experiment variation. […]

AsPC1 cells = experiment: Glycogen content in AsPC1 cells; conditions: AsPC1, CBS2, 3 hours
Experimental: Glycogen was quantified using the Glycogen Assay Kit II (colorimetric) from AbCam (ab169558) according to manufacturer's instructions. Briefly, approximately 2×10^6 cells were washed with ice-cold PBS and collected via scraping in 300 μL ice-cold ddH2O. Cells were immediately sonicated on ice for 5× […] pulses with a probe sonicator (Misonix Inc, model XL2000), then heated to 80° C. for 10 min. Samples were stored O/N at −20° C., then thawed, centrifuged at 12,000×g for 10 min and the supernatants collected for glycogen hydrolysis and quantification according to manufacturer's instructions.
C. […] Cells were treated in CBS2 for 3 hours with 30 μM devimistat or mock treated (FIG. 2C, left), or treated for 3 hours with the indicated devimistat doses (FIG. 2C, right).
D. Effects of anti-metabolism agents on glycogen consumption in PANC1 and AsPC1 cells. […] Glycogen content was measured in cell lysates (see Methods, above) and the results are presented in the left and middle graphs in FIG. 3D (note the different vertical scales for PANC1 and AsPC1 plots).

[1] = tested on: BxPC3, PANC1, AsPC1 and H460 cells; experiment: 3H-2-deoxyglucose uptake by tumor cell lines; conditions: 240 μM devimistat, complete RPMI, two hours
Experimental: Cells were treated in complete RPMI with devimistat (240 μM) for a total of 2 hours, with a pulse of 1,2-^3H 2-deoxyglucose at the end of this treatment for the times indicated in Example 1D and FIG. 1D. Cells were harvested, washed, and counted to asses uptake. More particularly, seeding, drug treatment, and 2DG uptake were all performed in RPMI medium supplemented with 10% FBS for BXPC3, H460 and PANC1 cells and DMEM+10% FBS for AsPC1. All treatments were done in triplicate. BxPC3 cells were seeded at 500,000 cells per 35-mm dish; H460, PANC1, and AsPC1 cells were plated in 6 well plates at 300,000 cells per well for PANC1 and at 500,000 cells per well for AsPC1 and H460. […]
At the end of the 2 hour drug treatment, plates were placed on ice, medium removed and plates were washed three times with ice cold medium without FBS. […] Lysates were transferred into scintillation vials containing 3 mL of scintillation cocktail and counted.
D. Pulse analysis of ^3H-2-deoxyglucose (2DG) uptake by tumor cell lines. ˜8×10^5 cells were treated with 240 μM devimistat or solvent control in complete RPMI for two hours and pulse labeled by addition of 0.5 μCi of ^3H-2DG for the final 0.25 or 1 hour of treatment as indicated in FIG. 1D. Cells were washed in ice-cold RPMI without serum, lysed, and counted (see Methods, above).

## O=C(O)CCCCC(CCSCc1ccccc1)SCc1ccccc1 (stereo not drawn) [devimistat, 6,8-bis(benzylsulfanyl)octanoic acid]
PANC1 cells
  sensitivity of PANC1 line to devimistat monotherapy: sensitive to devimistat monotherapy
AsPC1 cells
  glycogen consumption: accelerated
[1]
  3H-2-deoxyglucose (glucose) uptake: accelerated glucose uptake
